Source: article PMC10451032 (ACS Central Science, 2023)

Legend:
[1] = tested on: Mpro M49I, M49T, M49L, and M49V; assay type: biochemical, SARS-CoV-2
[2] = tested on: rNsp5^S144A recombinant SARS-CoV-2; assay type: cell-based
[3] = tested on: rNsp5^E166Q recombinant SARS-CoV-2; assay type: cell-based
eight Q189 mutants = assay type: biochemical, SARS-CoV-2
[4] = tested on: rNsp5^H172Q recombinant SARS-CoV-2; assay type: cell-based
[5] = tested on: rNsp5^S144M recombinant SARS-CoV-2; assay type: cell-based
Mpro S144A = settings: cited from earlier work
Mpro H172Y = settings: cited from earlier work
[6] = tested on: rNsp5^H172Y recombinant SARS-CoV-2; assay type: cell-based
[7] = tested on: top nine high-frequency mutants at residue N142; assay type: biochemical, SARS-CoV-2
[8] = biological target: Mpro G15S, T21I, L89F, K90R, P108S, P132H, and L205V; settings: cited from earlier work
[9] = tested on: Mpro Q192T, Q192S, Q192L, Q192A, Q192I, Q192P, Q192H, Q192V, Q192W, Q192C, and Q192F; assay type: biochemical, SARS-CoV-2

CC(C)(C)[C@H](NC(=O)C(F)(F)F)C(=O)N1C[C@H]2[C@@H]([C@H]1C(=O)N[C@H](C#N)C[C@@H]1CCNC1=O)C2(C)C [nirmatrelvir]
change in IC50 vs WT [1]: < 3 fold | EC50 [2]: 127 nM | EC50 fold increase compared to rNsp5^WT [2]: 5.0 fold | EC50 [3]: 69.7 nM | EC50 fold increase compared to rNsp5^WT [3]: 2.7 fold | change in IC50 vs WT (eight Q189 mutants): < 3.1 fold | EC50 [4]: 133 ± 2.86 nM | EC50 fold increase compared to rNsp5^WT [4]: 5.2 fold | EC50 [5]: 87.1 ± 3.06 nM | EC50 fold increase compared to rNsp5^WT [5]: 3.4 fold | Ki increase (Mpro S144A): 91.9 fold | increase in Ki (Mpro H172Y): 233 fold | EC50 [6]: 378 ± 10.2 nM | change in IC50 vs WT [7]: < 3.5 fold | IC50 or Ki value shifts [8]: < 2 fold

CC(C)C[C@H](NC(=O)OCc1ccccc1)C(=O)N[C@@H](CC1CCNC1=O)C(O)S(=O)(=O)[O-].[Na+] (stereo partly shown) [GC-376]
Cross-resistance (fold vs WT) [9]: > 7.7 fold
